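Values below derive from 48-hour exposures of cells grown in 96-well plates, with endpoints linearly interpolated between the two concentrations bracketing the appropriate inhibition level. Here, GI50 denotes the concentration required for 50% inhibition of growth.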 Calls of active or inactive are those of the source. No stated cut-off is given here; in the data, active = GI50 up to about 1.1 µM and inactive = higher.
Tests used:
Test in all cases: DTP human tumour cell line panel, 48 h
786-0 = test system: 786-0
A498 = test system: A498
A549 = test system: A549
ACHN = test system: ACHN
BT-549 = test system: BT-549
CAKI-1 = test system: CAKI-1
CCRF-CEM = test system: CCRF-CEM
COLO 205 = test system: COLO 205
DU-145 = test system: DU-145
EKVX = test system: EKVX
HCC 2998 = test system: HCC 2998
HCT-116 = test system: HCT-116
HCT-15 = test system: HCT-15
HL-60 = test system: HL-60
HOP-62 = test system: HOP-62
HOP-92 = test system: HOP-92
HT-29 = test system: HT-29
Hs-578T = test system: Hs-578T
IGROV-1 = test system: IGROV-1
K562 = test system: K562
KM12 = test system: KM12
LOX IMVI = test system: LOX IMVI
M14 = test system: M14
MCF7 = test system: MCF7
MDA-MB-231 = test system: MDA-MB-231
MDA-MB-435 = test system: MDA-MB-435
MDA-N = test system: MDA-N
MOLT-4 = test system: MOLT-4
Malme-3M = test system: Malme-3M
NCI-H226 = test system: NCI-H226
NCI-H23 = test system: NCI-H23
NCI-H460 = test system: NCI-H460
NCI-H522 = test system: NCI-H522
NCI/ADR-RES = test system: NCI/ADR-RES
OVCAR-3 = test system: OVCAR-3
OVCAR-4 = test system: OVCAR-4
OVCAR-5 = test system: OVCAR-5
OVCAR-8 = test system: OVCAR-8
PC-3 = test system: PC-3
RPMI-8226 = test system: RPMI-8226
RXF 393 = test system: RXF 393
SF-268 = test system: SF-268
SF-295 = test system: SF-295
SF-539 = test system: SF-539
SK-MEL-28 = test system: SK-MEL-28
SK-MEL-2 = test system: SK-MEL-2
SK-MEL-5 = test system: SK-MEL-5
SK-OV-3 = test system: SK-OV-3
SN12C = test system: SN12C
SNB-19 = test system: SNB-19
SNB-75 = test system: SNB-75
SR = test system: SR
SW-620 = test system: SW-620
T47D = test system: T47D
TK-10 = test system: TK-10
U-251 = test system: U-251
UACC-257 = test system: UACC-257
UACC-62 = test system: UACC-62
UO-31 = test system: UO-31

CCO/C=N/C1=C(C#N)C(c2ccc(Cl)cc2)c2c(-c3ccccc3)nn(-c3ccccc3)c2O1 (stereo not drawn)
GI50 (786-0): 10.2 µM (inactive)
GI50 (A498): 13.4 µM (inactive)
GI50 (A549): 5.73 µM (inactive)
GI50 (ACHN): 8.51 µM (inactive)
GI50 (BT-549): 14.1 µM (inactive)
GI50 (CAKI-1): 15.7 µM (inactive)
GI50 (CCRF-CEM): 5.73 µM (inactive)
GI50 (COLO 205): 5.27 µM (inactive)
GI50 (DU-145): 16 µM (inactive)
GI50 (EKVX): 13.9 µM (inactive)
GI50 (HCC 2998): 7.16 µM (inactive)
GI50 (HCT-116): 7.5 µM (inactive)
GI50 (HCT-15): 5.43 µM
GI50 (HL-60): 5.66 µM (inactive)
GI50 (HOP-62): 19.1 µM (inactive)
GI50 (HOP-92): 5.42 µM (inactive)
GI50 (HT-29): 7.53 µM (inactive)
GI50 (Hs-578T): 6.12 µM (inactive)
GI50 (IGROV-1): 8.93 µM (inactive)
GI50 (K562): 7.78 µM (inactive)
GI50 (KM12): 5.09 µM (inactive)
GI50 (LOX IMVI): 9.62 µM (inactive)
GI50 (M14): 4.58 µM (inactive)
GI50 (MCF7): 3.81 µM (inactive)
GI50 (MDA-MB-231): 21.6 µM (inactive)
GI50 (MDA-MB-435): 12.4 µM (inactive)
GI50 (MDA-N): 14.7 µM (inactive)
GI50 (MOLT-4): 6.93 µM (inactive)
GI50 (Malme-3M): 12.3 µM (inactive)
GI50 (NCI-H226): 15.7 µM (inactive)
GI50 (NCI-H23): 5.15 µM (inactive)
GI50 (NCI-H460): 7.69 µM (inactive)
GI50 (NCI-H522): 3.77 µM (inactive)
GI50 (NCI/ADR-RES): 9.86 µM (inactive)
GI50 (OVCAR-3): 3.72 µM (inactive)
GI50 (OVCAR-4): 11.4 µM (inactive)
GI50 (OVCAR-5): 23.7 µM (inactive)
GI50 (OVCAR-8): 14 µM (inactive)
GI50 (PC-3): 4.28 µM (inactive)
GI50 (RPMI-8226): 6.53 µM (inactive)
GI50 (RXF 393): 7.03 µM (inactive)
GI50 (SF-268): 7.87 µM (inactive)
GI50 (SF-295): 7.43 µM (inactive)
GI50 (SF-539): 6.14 µM (inactive)
GI50 (SK-MEL-28): 11.7 µM (inactive)
GI50 (SK-MEL-2): 11.7 µM (inactive)
GI50 (SK-MEL-5): > 10 µM (inactive)
GI50 (SK-OV-3): 14.3 µM (inactive)
GI50 (SN12C): 12.2 µM (inactive)
GI50 (SNB-19): 12.7 µM (inactive)
GI50 (SNB-75): 6.81 µM (inactive)
GI50 (SR): 5.5 µM (inactive)
GI50 (SW-620): 12.9 µM (inactive)
GI50 (T47D): > 61.9 µM (inactive)
GI50 (TK-10): 7.19 µM (inactive)
GI50 (U-251): 8.55 µM (inactive)
GI50 (UACC-257): 11.8 µM (inactive)
GI50 (UACC-62): 12.2 µM (inactive)
GI50 (UO-31): 11.6 µM (inactive)

CCOC(=O)C12CC(C)=C(C)CC1CCCc1ccccc12 (stereo not drawn)
GI50 (786-0): 31.5 µM (inactive)
GI50 (A498): 23 µM (inactive)
GI50 (A549): 32.7 µM (inactive)
GI50 (ACHN): 18.8 µM (inactive)
GI50 (BT-549): 43.3 µM (inactive)
GI50 (CAKI-1): 31.1 µM (inactive)
GI50 (CCRF-CEM): 18.4 µM (inactive)
GI50 (COLO 205): 16.6 µM (inactive)
GI50 (DU-145): 34 µM (inactive)
GI50 (EKVX): 21.1 µM (inactive)
GI50 (HCC 2998): 14.2 µM (inactive)
GI50 (HCT-116): 14.7 µM (inactive)
GI50 (HCT-15): 22.3 µM
GI50 (HL-60): 11.2 µM (inactive)
GI50 (HOP-62): 38.3 µM (inactive)
GI50 (HOP-92): 13.5 µM (inactive)
GI50 (HT-29): 16.9 µM (inactive)
GI50 (Hs-578T): 36.1 µM (inactive)
GI50 (IGROV-1): 26.4 µM (inactive)
GI50 (K562): 21.2 µM (inactive)
GI50 (KM12): 29.6 µM (inactive)
GI50 (LOX IMVI): 17.1 µM (inactive)
GI50 (M14): 30.3 µM (inactive)
GI50 (MCF7): 17 µM (inactive)
GI50 (MDA-MB-231): 14.2 µM (inactive)
GI50 (MDA-MB-435): 27.2 µM (inactive)
GI50 (MDA-N): 26 µM (inactive)
GI50 (MOLT-4): 18 µM (inactive)
GI50 (Malme-3M): 23 µM (inactive)
GI50 (NCI-H226): 24.5 µM (inactive)
GI50 (NCI-H23): 28.4 µM (inactive)
GI50 (NCI-H460): 16.4 µM (inactive)
GI50 (NCI-H522): 17.6 µM (inactive)
GI50 (NCI/ADR-RES): 39.4 µM (inactive)
GI50 (OVCAR-3): 17.5 µM (inactive)
GI50 (OVCAR-4): 32.5 µM (inactive)
GI50 (OVCAR-5): 21.4 µM (inactive)
GI50 (OVCAR-8): 28.9 µM (inactive)
GI50 (PC-3): 18.1 µM (inactive)
GI50 (RPMI-8226): 12.5 µM (inactive)
GI50 (RXF 393): 18.7 µM (inactive)
GI50 (SF-268): 38.9 µM (inactive)
GI50 (SF-295): 25.1 µM (inactive)
GI50 (SF-539): 28.2 µM (inactive)
GI50 (SK-MEL-28): 30.8 µM (inactive)
GI50 (SK-MEL-2): 15.5 µM (inactive)
GI50 (SK-MEL-5): 21.5 µM (inactive)
GI50 (SK-OV-3): 32 µM (inactive)
GI50 (SN12C): 23.4 µM (inactive)
GI50 (SNB-19): 29.6 µM (inactive)
GI50 (SNB-75): 28.8 µM (inactive)
GI50 (SR): 23.8 µM (inactive)
GI50 (SW-620): 20.8 µM (inactive)
GI50 (T47D): 15 µM (inactive)
GI50 (TK-10): 27 µM (inactive)
GI50 (U-251): 18.4 µM (inactive)
GI50 (UACC-257): 17.6 µM (inactive)
GI50 (UACC-62): 21.9 µM (inactive)
GI50 (UO-31): 47 µM (inactive)
